The values that follow come from ChEMBL document CHEMBL5321287, “Discovery, Synthesis, and Evaluation of Novel Dual Inhibitors of a Vascular Endothelial Growth Factor Receptor and Poly(ADP-Ribose) Polymerase for BRCA Wild-Type Breast Cancer Therapy” (J Med Chem, 2023).

The nature of series [1]: Cmax in Sprague-Dawley rat at 10 mg/kg, po via gavage by LC-MS analysis. Format: ADME, organism-based. On the set-up: dose 10 mg/kg, route po. The conditions noted are these: in vivo.
Series [2] is described as follows: Oral bioavailability in Sprague-Dawley rat at 10 mg/kg administered via gavage by LC-MS analysis. Format: ADME, organism-based. The conditions noted are these: in vivo.
A short description of series [3]: Toxicity in BALB/c nude mouse xenografted with human MDA-MB-231 cells assessed as damage in spleen at 25 to 50 mg/kg, po for 14 days. The conditions noted are these: in vivo, 336 h, dose 25-50 mg/kg, time 14 day. Format: organism-based. (Xenograft models place foreign cells or tissue in a host animal.)
A short description of series [4]: Half life in Sprague-Dawley rat at 10 mg/kg, po via gavage by LC-MS analysis. The series is classed as ADME, organism-based. The conditions noted are these: in vivo.
Series [5] has as its target Vascular endothelial growth factor receptor 1 (Homo sapiens, UniProt P17948). Put plainly: Inhibition of VEGFR1 (unknown origin) by Z'-Lyte kinase assay.
For series [6], the target named is T1, Serine/threonine-protein kinase TAO2 (Homo sapiens, UniProt Q9UL54).
T1 sequence (Q9UL54 whole entry): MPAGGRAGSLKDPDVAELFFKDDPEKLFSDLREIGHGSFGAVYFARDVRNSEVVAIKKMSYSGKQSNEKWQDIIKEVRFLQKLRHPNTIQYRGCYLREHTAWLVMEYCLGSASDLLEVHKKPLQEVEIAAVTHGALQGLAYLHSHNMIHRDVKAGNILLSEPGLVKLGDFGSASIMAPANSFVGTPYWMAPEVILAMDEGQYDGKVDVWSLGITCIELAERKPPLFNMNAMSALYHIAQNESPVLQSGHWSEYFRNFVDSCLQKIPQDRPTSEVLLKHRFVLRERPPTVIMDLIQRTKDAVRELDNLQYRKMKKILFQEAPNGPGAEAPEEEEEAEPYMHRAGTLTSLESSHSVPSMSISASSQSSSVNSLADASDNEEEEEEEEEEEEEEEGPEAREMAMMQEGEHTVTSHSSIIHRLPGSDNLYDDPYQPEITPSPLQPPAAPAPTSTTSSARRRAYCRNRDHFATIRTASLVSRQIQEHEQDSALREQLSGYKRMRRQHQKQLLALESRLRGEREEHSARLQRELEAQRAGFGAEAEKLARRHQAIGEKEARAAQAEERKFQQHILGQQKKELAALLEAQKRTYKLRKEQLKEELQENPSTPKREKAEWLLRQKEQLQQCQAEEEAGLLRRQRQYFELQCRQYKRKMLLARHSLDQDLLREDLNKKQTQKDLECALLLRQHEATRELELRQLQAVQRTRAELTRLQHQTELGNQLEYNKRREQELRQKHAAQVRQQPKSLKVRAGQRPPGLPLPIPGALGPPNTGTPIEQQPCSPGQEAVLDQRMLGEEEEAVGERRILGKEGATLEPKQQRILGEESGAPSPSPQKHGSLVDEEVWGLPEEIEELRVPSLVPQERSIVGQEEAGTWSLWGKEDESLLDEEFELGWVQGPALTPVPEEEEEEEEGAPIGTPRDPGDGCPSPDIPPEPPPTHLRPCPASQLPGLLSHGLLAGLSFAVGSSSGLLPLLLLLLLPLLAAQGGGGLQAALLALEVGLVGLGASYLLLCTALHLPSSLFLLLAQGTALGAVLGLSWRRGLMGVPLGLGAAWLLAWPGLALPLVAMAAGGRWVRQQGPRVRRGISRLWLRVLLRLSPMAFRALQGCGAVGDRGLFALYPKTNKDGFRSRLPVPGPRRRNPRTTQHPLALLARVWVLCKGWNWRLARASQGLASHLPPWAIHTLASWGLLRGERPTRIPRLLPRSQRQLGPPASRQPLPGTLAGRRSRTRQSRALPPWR
Briefly: Inhibition of TAO2 (unknown origin) by Z'-Lyte kinase assay.

Series [7] in a line: AUC (0 to t) in Sprague-Dawley rat at 10 mg/kg, po via gavage by LC-MS analysis. Format: ADME, organism-based. The arrangement: dose 10 mg/kg, route po. The conditions noted are these: in vivo.
Series [8] is described as follows: AUC (0 to infinity) in Sprague-Dawley rat at 1 mg/kg, iv by LC-MS analysis. The series is classed as ADME, organism-based. On the set-up: dose 1 mg/kg, route iv. The conditions noted are these: in vivo.
A short description of series [9]: Clearance in Sprague-Dawley rat at 1 mg/kg, iv by LC-MS analysis. The series is classed as ADME, organism-based. The conditions noted are these: in vivo.
Series [10] has as its target Macrophage colony-stimulating factor 1 receptor (Homo sapiens, UniProt P07333). Put plainly: Inhibition of FMS (unknown origin) by Z'-Lyte kinase assay.
In series [11] the target is Serine/threonine-protein kinase 16 (Homo sapiens, UniProt O75716). Put plainly: Inhibition of MPSK1 (unknown origin) by Z'-Lyte kinase assay.
Series [12] can be described thus: Apparent volume of distribution in Sprague-Dawley rat at 1 mg/kg, iv by LC-MS analysis. The series is classed as ADME, organism-based. The conditions noted are these: in vivo, read-out: Vz.
The nature of series [13]: Toxicity in BALB/c nude mouse xenografted with human MDA-MB-231 cells assessed as damage in kidney at 25 to 50 mg/kg, po for 14 days. The conditions noted are these: in vivo, 336 h, dose 25-50 mg/kg, time 14 day. Format: organism-based.
In series [14] the target is Vascular endothelial growth factor receptor 3 (Homo sapiens, UniProt P35916). Briefly: Inhibition of VEGFR3 (unknown origin) by Z'-Lyte kinase assay.
A short description of series [15]: AUC (0 to infinity) in Sprague-Dawley rat at 10 mg/kg, po via gavage by LC-MS analysis. Format: ADME, organism-based. On the set-up: dose 10 mg/kg, route po. The conditions noted are these: in vivo.
Series [16] in a line: Half life in Sprague-Dawley rat at 1 mg/kg, iv by LC-MS analysis. Format: ADME, organism-based. The conditions noted are these: in vivo.
Series [17] is described as follows: Toxicity in BALB/c nude mouse xenografted with human MDA-MB-231 cells assessed as change in body weight at 25 to 50 mg/kg, po for 14 days. The conditions noted are these: in vivo, 336 h, dose 25-50 mg/kg, time 14 day. Format: organism-based.
The nature of series [18]: Toxicity in BALB/c nude mouse xenografted with human MDA-MB-231 cells assessed as damage in lungs at 25 to 50 mg/kg, po for 14 days. The series is classed as organism-based. The conditions noted are these: in vivo, 336 h, dose 25-50 mg/kg, time 14 day.
Series [19] is described as follows: Toxicity in BALB/c nude mouse xenografted with human MDA-MB-231 cells assessed as damage in liver at 25 to 50 mg/kg, po for 14 days. The series is classed as organism-based. The conditions noted are these: in vivo, 336 h, dose 25-50 mg/kg, time 14 day.
The nature of series [20]: Cmax in Sprague-Dawley rat at 1 mg/kg, iv by LC-MS analysis. The series is classed as ADME, organism-based. The arrangement: dose 1 mg/kg, route iv. The conditions noted are these: in vivo.
A short description of series [21]: Toxicity in BALB/c nude mouse xenografted with human MDA-MB-231 cells assessed as damage in heart at 25 to 50 mg/kg, po for 14 days. The conditions noted are these: in vivo, 336 h, dose 25-50 mg/kg, time 14 day. The series is classed as organism-based.
The target in series [22] is Mitogen-activated protein kinase kinase kinase 11 (Homo sapiens, UniProt Q16584). Briefly: Inhibition of MLK3 (unknown origin) by Z'-Lyte kinase assay.
Series [23] can be described thus: AUC (0 to t) in Sprague-Dawley rat at 1 mg/kg, iv by LC-MS analysis. The series is classed as ADME, organism-based. The arrangement: dose 1 mg/kg, route iv. The conditions noted are these: in vivo.
Series [24] has as its target Poly [ADP-ribose] polymerase 2 (Homo sapiens, UniProt Q9UGN5). Put plainly: Inhibition of PARP2 (unknown origin).

Chain of Vascular endothelial growth factor receptor 3 (P35916 whole entry): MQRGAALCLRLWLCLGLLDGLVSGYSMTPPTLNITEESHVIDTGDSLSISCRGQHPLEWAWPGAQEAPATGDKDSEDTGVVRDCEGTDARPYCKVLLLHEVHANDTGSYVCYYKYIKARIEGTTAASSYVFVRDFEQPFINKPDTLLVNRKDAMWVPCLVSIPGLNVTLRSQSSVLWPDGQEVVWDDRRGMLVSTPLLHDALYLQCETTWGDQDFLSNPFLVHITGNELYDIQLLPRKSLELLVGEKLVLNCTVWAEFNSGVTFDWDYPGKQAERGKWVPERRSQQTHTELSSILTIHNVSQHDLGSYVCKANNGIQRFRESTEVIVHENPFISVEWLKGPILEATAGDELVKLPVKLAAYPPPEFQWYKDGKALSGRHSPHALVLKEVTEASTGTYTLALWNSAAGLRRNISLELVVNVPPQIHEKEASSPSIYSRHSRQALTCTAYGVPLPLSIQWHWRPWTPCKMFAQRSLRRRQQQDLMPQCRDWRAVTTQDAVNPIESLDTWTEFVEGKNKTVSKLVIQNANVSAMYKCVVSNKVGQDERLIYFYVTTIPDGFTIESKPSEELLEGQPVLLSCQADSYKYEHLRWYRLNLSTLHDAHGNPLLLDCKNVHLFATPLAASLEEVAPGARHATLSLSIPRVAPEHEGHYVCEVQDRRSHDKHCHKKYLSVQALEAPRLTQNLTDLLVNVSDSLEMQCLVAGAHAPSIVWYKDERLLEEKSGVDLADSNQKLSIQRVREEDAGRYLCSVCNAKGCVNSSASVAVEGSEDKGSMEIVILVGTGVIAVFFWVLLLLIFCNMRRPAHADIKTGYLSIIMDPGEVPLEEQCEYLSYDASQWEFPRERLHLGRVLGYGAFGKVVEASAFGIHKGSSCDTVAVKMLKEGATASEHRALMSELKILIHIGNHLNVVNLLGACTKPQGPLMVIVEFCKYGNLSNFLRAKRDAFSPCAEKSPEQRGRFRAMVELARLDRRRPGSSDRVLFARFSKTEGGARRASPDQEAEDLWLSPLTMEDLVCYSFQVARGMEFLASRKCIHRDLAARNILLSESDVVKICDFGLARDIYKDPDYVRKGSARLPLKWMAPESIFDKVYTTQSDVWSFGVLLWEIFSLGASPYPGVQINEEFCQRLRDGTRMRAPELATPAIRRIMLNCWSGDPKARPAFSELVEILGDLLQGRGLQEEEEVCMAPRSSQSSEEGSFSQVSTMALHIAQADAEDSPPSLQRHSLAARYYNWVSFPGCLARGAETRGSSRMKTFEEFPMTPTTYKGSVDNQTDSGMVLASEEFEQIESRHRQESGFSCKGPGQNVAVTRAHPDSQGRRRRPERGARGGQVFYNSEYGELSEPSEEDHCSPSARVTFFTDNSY
Chain of Macrophage colony-stimulating factor 1 receptor (P07333 whole entry): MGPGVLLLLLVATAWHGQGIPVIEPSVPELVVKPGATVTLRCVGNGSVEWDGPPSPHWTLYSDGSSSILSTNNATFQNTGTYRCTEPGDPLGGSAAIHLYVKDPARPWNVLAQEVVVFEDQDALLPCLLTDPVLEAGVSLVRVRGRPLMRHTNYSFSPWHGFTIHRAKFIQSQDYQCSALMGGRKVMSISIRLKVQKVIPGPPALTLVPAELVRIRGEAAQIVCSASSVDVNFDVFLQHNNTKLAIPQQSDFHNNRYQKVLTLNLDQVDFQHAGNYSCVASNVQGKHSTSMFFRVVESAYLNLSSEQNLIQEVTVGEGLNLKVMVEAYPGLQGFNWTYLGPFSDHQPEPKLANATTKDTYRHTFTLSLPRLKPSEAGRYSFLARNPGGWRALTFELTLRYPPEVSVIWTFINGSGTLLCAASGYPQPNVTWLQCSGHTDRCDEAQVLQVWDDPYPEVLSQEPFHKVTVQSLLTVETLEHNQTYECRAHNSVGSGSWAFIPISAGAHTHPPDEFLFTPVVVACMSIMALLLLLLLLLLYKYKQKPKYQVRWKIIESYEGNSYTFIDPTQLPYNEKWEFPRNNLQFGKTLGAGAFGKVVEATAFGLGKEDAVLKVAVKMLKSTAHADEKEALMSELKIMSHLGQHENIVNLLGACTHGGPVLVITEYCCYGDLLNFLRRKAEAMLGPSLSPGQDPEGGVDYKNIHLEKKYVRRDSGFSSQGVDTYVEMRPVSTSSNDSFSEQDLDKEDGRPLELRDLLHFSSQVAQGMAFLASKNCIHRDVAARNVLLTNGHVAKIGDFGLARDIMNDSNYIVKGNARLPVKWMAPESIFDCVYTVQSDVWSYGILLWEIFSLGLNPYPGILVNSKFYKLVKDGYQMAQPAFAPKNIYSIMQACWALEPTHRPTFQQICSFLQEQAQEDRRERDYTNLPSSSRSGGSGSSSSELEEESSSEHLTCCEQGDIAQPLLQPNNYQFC
Chain of Mitogen-activated protein kinase kinase kinase 11 (Q16584 whole entry): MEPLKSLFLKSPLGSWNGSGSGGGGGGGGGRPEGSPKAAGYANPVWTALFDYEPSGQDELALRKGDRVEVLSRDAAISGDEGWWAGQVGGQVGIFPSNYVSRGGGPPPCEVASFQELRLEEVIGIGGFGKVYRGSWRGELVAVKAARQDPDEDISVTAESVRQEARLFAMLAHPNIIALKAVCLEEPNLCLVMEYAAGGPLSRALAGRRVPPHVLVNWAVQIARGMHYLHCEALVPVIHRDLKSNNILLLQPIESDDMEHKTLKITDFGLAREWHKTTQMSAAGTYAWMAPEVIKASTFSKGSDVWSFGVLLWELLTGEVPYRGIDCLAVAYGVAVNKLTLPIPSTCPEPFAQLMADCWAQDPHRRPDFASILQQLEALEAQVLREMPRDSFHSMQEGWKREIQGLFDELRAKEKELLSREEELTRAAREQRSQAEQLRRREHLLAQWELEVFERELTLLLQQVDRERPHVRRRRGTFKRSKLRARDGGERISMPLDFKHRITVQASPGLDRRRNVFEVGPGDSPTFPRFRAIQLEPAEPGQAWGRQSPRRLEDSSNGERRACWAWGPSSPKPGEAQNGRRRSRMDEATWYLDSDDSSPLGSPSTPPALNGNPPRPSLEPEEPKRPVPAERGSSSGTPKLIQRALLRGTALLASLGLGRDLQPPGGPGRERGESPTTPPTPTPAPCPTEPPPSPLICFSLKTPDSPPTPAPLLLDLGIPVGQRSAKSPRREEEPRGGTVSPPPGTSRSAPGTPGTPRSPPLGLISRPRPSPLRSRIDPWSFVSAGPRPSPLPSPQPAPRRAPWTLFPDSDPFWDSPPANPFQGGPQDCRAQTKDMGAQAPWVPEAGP
Chain of Vascular endothelial growth factor receptor 1 (P17948 whole entry): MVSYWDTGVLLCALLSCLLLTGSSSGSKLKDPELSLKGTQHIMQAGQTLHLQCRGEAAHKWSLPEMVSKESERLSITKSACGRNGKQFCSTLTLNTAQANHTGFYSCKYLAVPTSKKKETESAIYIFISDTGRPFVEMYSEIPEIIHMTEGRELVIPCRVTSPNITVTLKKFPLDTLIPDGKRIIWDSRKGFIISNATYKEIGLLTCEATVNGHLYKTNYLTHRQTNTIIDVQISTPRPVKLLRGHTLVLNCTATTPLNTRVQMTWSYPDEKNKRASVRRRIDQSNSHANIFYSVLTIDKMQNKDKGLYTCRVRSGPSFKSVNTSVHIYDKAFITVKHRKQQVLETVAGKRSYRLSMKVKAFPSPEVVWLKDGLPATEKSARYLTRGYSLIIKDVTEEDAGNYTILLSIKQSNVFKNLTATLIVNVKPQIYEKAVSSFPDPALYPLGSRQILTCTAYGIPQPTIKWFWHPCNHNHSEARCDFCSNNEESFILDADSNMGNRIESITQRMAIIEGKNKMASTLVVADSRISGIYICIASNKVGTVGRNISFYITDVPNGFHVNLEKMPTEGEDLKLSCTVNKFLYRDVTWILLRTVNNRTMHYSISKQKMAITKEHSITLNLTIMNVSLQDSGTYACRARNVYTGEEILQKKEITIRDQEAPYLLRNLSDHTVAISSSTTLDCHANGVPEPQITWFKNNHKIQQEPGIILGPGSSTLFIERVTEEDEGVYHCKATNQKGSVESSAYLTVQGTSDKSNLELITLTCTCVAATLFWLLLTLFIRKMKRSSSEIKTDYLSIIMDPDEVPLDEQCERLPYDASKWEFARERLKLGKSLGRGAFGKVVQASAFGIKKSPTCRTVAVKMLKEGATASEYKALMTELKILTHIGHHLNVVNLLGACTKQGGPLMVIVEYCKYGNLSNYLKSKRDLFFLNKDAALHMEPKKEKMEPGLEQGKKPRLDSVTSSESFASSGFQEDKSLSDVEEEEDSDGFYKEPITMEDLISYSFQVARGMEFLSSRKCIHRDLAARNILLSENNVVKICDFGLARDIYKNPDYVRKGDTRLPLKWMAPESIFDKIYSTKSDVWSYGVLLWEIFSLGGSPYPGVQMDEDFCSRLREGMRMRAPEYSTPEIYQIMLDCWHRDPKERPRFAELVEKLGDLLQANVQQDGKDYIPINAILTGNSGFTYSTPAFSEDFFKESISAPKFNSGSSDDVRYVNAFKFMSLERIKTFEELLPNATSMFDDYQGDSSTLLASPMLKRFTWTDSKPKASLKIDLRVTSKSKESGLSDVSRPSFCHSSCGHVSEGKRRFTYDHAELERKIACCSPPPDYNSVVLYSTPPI
Chain of Poly [ADP-ribose] polymerase 2 (Q9UGN5 whole entry): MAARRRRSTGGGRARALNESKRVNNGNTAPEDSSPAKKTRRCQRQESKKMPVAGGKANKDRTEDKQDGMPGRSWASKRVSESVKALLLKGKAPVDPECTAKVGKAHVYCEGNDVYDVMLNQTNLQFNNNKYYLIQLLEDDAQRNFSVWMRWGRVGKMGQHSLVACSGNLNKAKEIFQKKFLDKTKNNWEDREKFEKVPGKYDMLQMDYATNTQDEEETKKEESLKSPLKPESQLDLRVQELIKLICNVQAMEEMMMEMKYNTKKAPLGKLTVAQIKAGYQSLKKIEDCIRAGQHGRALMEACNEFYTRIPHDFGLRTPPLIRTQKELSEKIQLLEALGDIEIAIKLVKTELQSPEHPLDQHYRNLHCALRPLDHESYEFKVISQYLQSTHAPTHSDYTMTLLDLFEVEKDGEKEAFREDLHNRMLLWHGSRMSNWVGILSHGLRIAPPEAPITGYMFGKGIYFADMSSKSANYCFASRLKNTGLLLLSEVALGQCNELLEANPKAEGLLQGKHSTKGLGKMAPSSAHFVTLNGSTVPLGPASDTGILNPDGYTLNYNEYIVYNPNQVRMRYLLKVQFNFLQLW

The Cmax is the maximum level reached in the sampled fluid or tissue. What is called bioavailability is the share of a dose that reaches the circulation, judged against a reference dose that is usually intravenous. Low readings indicate poor availability, high ones good availability. Usually half-life stands for how long it takes for the measured level to halve. A lower half-life goes with fast loss. Broadly, the IC50 is the midpoint of a concentration-inhibition curve. Read a low IC50 as greater potency. By AUC(0-t) is commonly meant exposure summed from dosing to a finite time, without extrapolation to infinity. A low value points to less exposure. One may read the AUC(0-inf) as the area under the concentration-time curve extrapolated to infinity. A high value points to more exposure. A word on the clearance: it is the rate of elimination divided by the concentration. Low readings indicate inefficient removal, high ones efficient removal. In the case of `Cc1ccc(Nc2nccc(N(C)c3ccc4c(C)n(C)nc4c3)n2)cc1-c1nc2c(C(N)=O)cccc2[nH]1`, the values for the Cmax in series [1] and in [20] were 2430 ng/mL and 482 ng/mL, respectively. The compound also had a bioavailability in series [2] of 60.1%. The Activity entry in [3], in series [13], in series [17], in series [18], in series [19] and in series [21] was “Non-Toxic” throughout. Moreover, the half-life was 1 h in series [4] and 1.2 h in series [16]. The IC50 was determined as 166 nM in [5]; 689 nM in series [6]; 299 nM in series [10]; 148 nM in [11]; 499 nM in series [14]; 347 nM in series [22]. Also, the IC50 in series [24] came to 78.4 nM. For the same compound, the AUC(0-t) in series [7] came to 4900 ng·h/mL; in series [23] it was 815 ng·h/mL. For the same compound, the AUC(0-inf) in series [8] was 821 ng·h/mL; in series [15] it was 4920 ng·h/mL. Besides, the clearance in [9] was determined as 20.9 mL/min/kg. Moreover, in series [12], the Vd was determined as 2.2 L/kg.
